Test results taken from US10844049B2, “GLP-1R agonists and uses thereof” (QILU REGOR THERAPEUTICS INC., priority 2018, dated 2020).

Target: GLP1R (Homo sapiens, UniProt P43220)
Test: GLP1R cAMP HTRF assay, HEK293/GLP-1R/CRE/Luc (HEK293T cells)
Format: cell-based
Details: read-out: EC50
Summary of the method: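 cAMP accumulation via HTRF after 30 min, 37 °C exposure of 1000 receptor-expressing cells/well to compound (0.5% DMSO final) in IBMX (500 μM)/0.1% BSA DPBS.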

Sequence of GLP1R (P43220 24-463): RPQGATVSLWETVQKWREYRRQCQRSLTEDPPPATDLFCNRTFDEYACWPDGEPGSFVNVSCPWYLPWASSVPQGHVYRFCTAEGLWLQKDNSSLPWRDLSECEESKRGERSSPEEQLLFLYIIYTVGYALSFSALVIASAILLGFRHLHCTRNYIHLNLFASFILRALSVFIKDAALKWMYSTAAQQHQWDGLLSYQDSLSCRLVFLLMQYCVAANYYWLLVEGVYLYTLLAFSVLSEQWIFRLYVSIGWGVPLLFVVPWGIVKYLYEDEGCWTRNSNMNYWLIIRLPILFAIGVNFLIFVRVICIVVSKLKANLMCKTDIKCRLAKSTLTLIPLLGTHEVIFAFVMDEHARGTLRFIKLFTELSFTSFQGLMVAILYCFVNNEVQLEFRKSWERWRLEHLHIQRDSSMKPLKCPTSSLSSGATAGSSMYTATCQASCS

O=C(O)c1ccc2nc(CN3CC=C(c4nc(OCc5ccc(Cl)cc5F)c(F)cc4F)CC3)n(C[C@@H]3CCO3)c2c1 [Compound 131, (S)-2-((4-(6-(4-chloro-2-fluorobenzyloxy)-3,5-difluoropyridin-2-yl)-5,6-dihydropyridin-1(2H)-yl)methyl)-1-(oxetan-2-ylmethyl)-1H-benzo[d]imidazole-6-carboxylic add]
EC50: ≤ 15 nM

COc1ccc(COc2cccc(C3=CCN(Cc4nc5ccc(C(=O)O)cc5n4C[C@@H]4CCO4)CC3)n2)cn1 [Compound 119, (S)-2-((6-((6-methoxypyridin-3-yl)methoxy)-3′,6′-dihydro-[2,4′-bipyridin]-1(2′H)-yl)methyl)-1-(oxetan-2-ylmethyl)-1H-benzo[d]imidazole-6-carboxylic acid]
EC50: ≤ 15 nM

O=C(O)c1ccc2nc(CN3CC=C(c4cccc(OCc5ccc(Cl)c(Cl)c5)n4)CC3)n(C[C@@H]3CCO3)c2c1 [Compound 115, (S)-2-((6-((3,4-dichlorobenzyl)oxy)-3′,6′-dihydro[2,4′-bipyridin]-1′(2′H)-yl)methyl)-1-(oxetan-2-ylmethyl)-1H-benzo[d]imidazole-6-carboxylic add]
EC50: ≤ 15 nM

O=C(O)c1ccc2nc(CC3CCN(c4cccc(OCc5ccc(Cl)cn5)n4)CC3)n(C[C@@H]3CCO3)c2n1 [Compound 230, (S)-2-((l-(6-((5-chloropyridin-2-yl)methoxy)pyridin-2-yl)piperidin-4-yl)methyl)-3-(oxetan-2-ylmethyl)-3H-imidazo[4,5-b]pyridine-5-carboxylic acid]
EC50: ≤ 150 nM

Cc1ccc(COc2cccc(C3=CCN(Cc4nc5ccc(C(=O)O)cc5n4C[C@@H]4CCO4)CC3)n2)cc1 [Compound 146, (S)-2-((6-((4-methylbenzyl)oxy)-3′,6′-dihydro-[2,4′-bipyridin]-1′(2′H)-yl)methyl)-1-(oxetan-2-ylmethyl)-1H-benzo[d]imidazole-6-carboxylic acid]
EC50: ≤ 15 nM

N#Cc1ccc(COc2cc(C3=CCN(Cc4nc5ccc(C(=O)O)cc5n4C[C@@H]4CCO4)CC3)cc(F)c2F)c(F)c1 [Compound 205, (S)-2-((4-(3-(4-cyano-2-fluorobenzyloxy)-4,5-difluorophenyl)-5,6-dihydropyridin-1(2H)-yl)methyl)-1-(oxetan-2-ylmethyl)-1H-benzo[d]imidazole-6-carboxylic acid]
EC50: ≤ 150 nM

O=C(O)c1ccc2nc(CN3CC=C(c4ccnc(NCc5ccc(Cl)cc5F)n4)CC3)n(C[C@@H]3CCO3)c2c1 [Compound 125, (S)-2-((4-(2-((4-chloro-2-fluorobenzyl)amino)pyrimidin-4-yl)-3,6-dihydropyridin-1(2H)-yl)methyl)-1-(oxetan-2-ylmethyl)-1H-benzo[d]imidazole-6-carboxylic add]
EC50: ≤ 150 nM

O=C(O)c1ccc2nc(CC3CCN(c4cccc(OCc5ccc(F)cc5F)n4)CC3)n(C[C@@H]3CCO3)c2n1 [Compound 229, (S)-2-((l-(6-((2,4-difluorobenzyl)oxy)pyridin-2-yl)piperidin-4-yl)methyl)-3-(oxetan-2-ylmethyl)-3H-imidazo[4,5-b]pyridine-5-carboxylic acid]
EC50: ≤ 15 nM

O=C(O)c1ccc2nc(CN3CCN(c4cc(F)c(F)c(OCc5ccc(Cl)cc5F)c4)CC3)n(C[C@@H]3CCO3)c2c1 [Compound 187, (S)-2-((4-(3-(4-chloro-2-fluorobenzyloxy)-4,5-difluorophenyl)piperazin-1-yl)methyl)-1-(oxetan-2-ylmethyl)-1H-benzo[d]imidazole-6-carboxylic acid]
EC50: ≤ 15 nM

O=C(O)c1ccc2nc(CN3CCN(c4ccc(=O)n(Cc5ccc(Cl)cc5F)n4)CC3)n(C[C@@H]3CCO3)c2c1 [Compound 7, (S)-2-((4-(1-(4-chloro-2-fluorobenzyl)-6-oxo-1,6-dihydropyridazin-3-yl)piperazin-1-yl)methyl)-1-(oxetan-2-ylmethyl)-1 h-benzo[d]imidazole-6-carboxylic acid]
EC50: > 1000 nM

O=C(O)c1ccc2nc(CN3CC=C(c4cccc(OCc5ccc(F)cc5)n4)CC3)n(C[C@@H]3CCO3)c2c1 [Compound 157, (S)-2-((6-((4-fluorobenzyl)oxy)-3′,6′-dihydro-[2H′-bipyridin]-1′(2′H)-yl)methyl)-1-(oxetan-2-ylmethyl)-1H-benzo[d]imidazole-6-carboxylic acid]
EC50: ≤ 15 nM

COc1ccc(COc2cccc(C3=CCN(Cc4nc5ccc(C(=O)O)cc5n4C[C@@H]4CCO4)CC3)n2)nc1 [Compound 117, (S)-2-((6-((5-methoxypyridin-2-yl)methoxy)-3′,6′-dihydro-[2,4′-bipyridin]-1′(2′H)-yl)methyl)-1-(oxetan-2-ylmethyl)-1H-benzo[d]imidazole-6-carboxylic add]
EC50: ≤ 15 nM

O=C(O)c1ccc2nc(CN3CC=C(c4cccc(OCc5ccncc5)n4)CC3)n(C[C@@H]3CCO3)c2c1 [Compound 160, (S)-1-(oxetan-2-ylmethyl)-2-((6-(pyridin-4-ylmethoxy)-5′,6′-dihydro-[2H′-bipyridin]-1′(2′H)-yl)methyl)-1H-benzo[d]imidazole-6-carboxylic acid]
EC50: ≤ 150 nM

O=C(O)c1ccc2nc(CN3CC=C(c4nc(OCc5ccc(C(F)(F)F)nc5)c(F)cc4F)CC3)n(C[C@@H]3CCO3)c2c1 [Compound 220, (S)-2-((3,5-difluoro-6-((6-(trifluoromethyl)pyridin-3-yl)methoxy)-5′,6′-dihydro-[2,4′-bipyridin]-1′(2′H)-yl)methyl)-1-(oxetan-2-ylmethyl)-1H-benzo[d]imidazole-6-carboxylic acid]
EC50: ≤ 15 nM

O=C(O)c1ccc2nc(CN3CC=C(c4cccc(OCc5ccnc(Cl)c5)n4)CC3)n(C[C@@H]3CCO3)c2c1 [Compound 162, (S)-2-((6-((2-chloropyridin-4-yl)methoxy)-3′,6′-dihydro-[2,4′-bipyridin]-1′(2′H)-yl)methyl)-1-(oxetan-2-ylmethyl)-1H-benzo[d]imidazole-6-carboxylic acid]
EC50: ≤ 150 nM

O=C(O)c1ccc2nc(CC3CCN(c4cccc(OCc5ccc(Cl)cn5)n4)CC3)n(C[C@@H]3CCO3)c2c1F [Compound 232, (S)-2-((l-(6-((5-chloropyridin-2-yl)methoxy)pyridin-2-yl)piperidin-4-yl)methyl)-7-fluoro-1-(oxetan-2-ylmethyl)-1H-benzo[d]imidazole-6-carboxylic acid]
EC50: ≤ 150 nM

O=C(O)c1ccc2nc(CN3CC=C(c4cc(-c5ccccc5)cc(OCc5ccc(Cl)cc5F)n4)CC3)n(C[C@@H]3CCO3)c2c1 [Compound 109]
EC50: ≤ 1000 nM

O=C(O)c1ccc2nc(CN3CC=C(c4ccnc(OCc5ccc(C(F)(F)F)nc5)n4)CC3)n(C[C@@H]3CCO3)c2c1 [Compound 219, (S)-1-(oxetan-2-ylmethyl)-2-((4-(2-((6-(trifluoromethyl)pyridin-3-yl)methoxy)pyrimidin-4-yl)-5,6-dihydropyridin-1(2H)-yl)methyl)-1H-benzo[d]imidazole-6-carboxylic acid]
EC50: ≤ 1000 nM

O=C(O)c1ccc2nc(CN3CC=C(c4ccnc(OCc5ccc(C#CC6CC6)cc5F)n4)CC3)n(C[C@@H]3CCO3)c2c1 [Compound 201, (S)-2-((4-(2-((4-(cyclopropylethynyl)-2-fluorobenzyl)oxy)pyrimidin-4-yl)-3,6-dihydropyridin-1(2H)-yl)methyl)-1-(oxetan-2-ylmethyl)-1H-benzo[d]imidazole-6-carboxylic acid]
EC50: ≤ 15 nM
